Source: ChEMBL document CHEMBL3997806, “Inhibition of veratridine-induced delayed inactivation of the voltage-sensitive sodium channel by synthetic analogs of crambescin B” (Bioorg Med Chem Lett, 2017)
Calls of active or inactive are those of the source. The calls are words filed in the database; no cut-off is given here.

Assays:
[1] = biological target: T1, Sodium channel protein type 2 subunit alpha (Homo sapiens, UniProt Q99250); assay: Inhibition of Nav1.2 (unknown origin) by cell based assay
Target sequence in this assay (Q99250 whole entry): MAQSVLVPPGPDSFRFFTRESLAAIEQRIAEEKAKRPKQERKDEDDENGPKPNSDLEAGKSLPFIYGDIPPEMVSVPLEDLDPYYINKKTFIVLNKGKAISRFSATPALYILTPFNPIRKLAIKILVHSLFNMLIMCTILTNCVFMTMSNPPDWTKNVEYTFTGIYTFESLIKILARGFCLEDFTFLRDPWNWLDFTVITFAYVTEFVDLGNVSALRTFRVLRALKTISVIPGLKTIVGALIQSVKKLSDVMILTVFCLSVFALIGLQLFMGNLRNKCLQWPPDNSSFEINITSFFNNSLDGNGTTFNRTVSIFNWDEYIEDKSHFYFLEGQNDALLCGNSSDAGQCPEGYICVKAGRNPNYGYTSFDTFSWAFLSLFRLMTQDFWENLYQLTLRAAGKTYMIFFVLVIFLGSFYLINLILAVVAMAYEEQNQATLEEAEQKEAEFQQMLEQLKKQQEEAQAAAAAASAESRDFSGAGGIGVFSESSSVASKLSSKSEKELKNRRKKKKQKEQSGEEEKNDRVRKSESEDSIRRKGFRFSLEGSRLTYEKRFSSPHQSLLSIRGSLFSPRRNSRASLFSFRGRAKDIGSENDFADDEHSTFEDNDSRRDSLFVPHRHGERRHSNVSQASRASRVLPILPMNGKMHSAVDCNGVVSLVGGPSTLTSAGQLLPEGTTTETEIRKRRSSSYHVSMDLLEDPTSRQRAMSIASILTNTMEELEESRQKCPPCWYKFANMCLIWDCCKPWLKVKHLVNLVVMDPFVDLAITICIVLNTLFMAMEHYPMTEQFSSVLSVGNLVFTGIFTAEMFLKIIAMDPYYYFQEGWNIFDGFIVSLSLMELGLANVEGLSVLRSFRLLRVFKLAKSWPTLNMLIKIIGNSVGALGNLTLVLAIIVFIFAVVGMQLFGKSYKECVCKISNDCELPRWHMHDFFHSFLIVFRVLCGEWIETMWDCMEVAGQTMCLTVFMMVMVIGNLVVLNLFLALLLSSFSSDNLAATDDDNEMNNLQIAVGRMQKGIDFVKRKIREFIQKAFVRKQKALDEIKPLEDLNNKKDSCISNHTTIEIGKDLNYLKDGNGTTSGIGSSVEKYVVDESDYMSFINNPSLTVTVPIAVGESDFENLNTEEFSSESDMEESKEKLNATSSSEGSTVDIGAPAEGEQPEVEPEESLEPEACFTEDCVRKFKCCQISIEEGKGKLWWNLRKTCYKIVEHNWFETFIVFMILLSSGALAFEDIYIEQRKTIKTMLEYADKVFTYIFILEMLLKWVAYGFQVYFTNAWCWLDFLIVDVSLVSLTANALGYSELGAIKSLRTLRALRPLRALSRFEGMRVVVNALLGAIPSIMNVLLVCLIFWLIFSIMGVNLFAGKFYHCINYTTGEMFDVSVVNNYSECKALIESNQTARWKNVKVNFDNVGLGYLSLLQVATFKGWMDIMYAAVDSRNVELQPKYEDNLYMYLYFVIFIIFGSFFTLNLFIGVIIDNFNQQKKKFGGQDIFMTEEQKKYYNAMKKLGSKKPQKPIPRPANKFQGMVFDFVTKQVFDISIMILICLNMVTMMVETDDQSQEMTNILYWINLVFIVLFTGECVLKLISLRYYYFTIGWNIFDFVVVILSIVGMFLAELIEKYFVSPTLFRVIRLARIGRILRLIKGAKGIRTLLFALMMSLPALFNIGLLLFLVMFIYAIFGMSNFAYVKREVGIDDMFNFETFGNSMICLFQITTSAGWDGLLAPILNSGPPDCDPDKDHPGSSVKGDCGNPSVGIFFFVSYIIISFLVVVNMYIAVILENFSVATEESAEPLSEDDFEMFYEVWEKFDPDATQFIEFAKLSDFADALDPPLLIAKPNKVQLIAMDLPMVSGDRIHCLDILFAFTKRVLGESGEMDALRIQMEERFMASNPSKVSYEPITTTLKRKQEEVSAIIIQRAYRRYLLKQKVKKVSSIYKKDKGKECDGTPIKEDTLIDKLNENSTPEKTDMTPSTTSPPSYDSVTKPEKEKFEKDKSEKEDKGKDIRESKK

[2] = biological target: T1, Sodium channel protein type 2 subunit alpha; assay: Ratio of IC50 for Nav1.2 (unknown origin) by cell based assay to IC50 for human Nav1.2 expressed in HEK293T cells assessed as inhibition of VTD-induced sustained current
Target sequence in this assay (Q99250 whole entry, looked up): as the sequence (Q99250 whole entry) above

[3] = biological target: T1, Sodium channel protein type 2 subunit alpha; assay: Antagonist activity at human Nav1.2 expressed in HEK293T cells assessed as inhibition of VTD-induced sustained current by whole cell patch clamp method relative to control; type: cell-based, HEK-293T; settings: for inhibition: HEK-293T
[4] = biological target: T1, Sodium channel protein type 2 subunit alpha; assay: Antagonist activity at human Nav1.2 expressed in HEK293T cells assessed as inhibition of VTD-induced tail current by whole cell patch clamp method relative to control; type: cell-based, HEK-293T; settings: for inhibition: HEK-293T
[5] = biological target: T1, Sodium channel protein type 2 subunit alpha; assay: Antagonist activity at human Nav1.2 expressed in HEK293T cells assessed as inhibition of VTD-induced peak current up to 10 nM by whole cell patch clamp method relative to control; type: cell-based; settings: HEK-293T
Target sequence in this assay (Q99250 whole entry, looked up): as the sequence (Q99250 whole entry) above

[6] = species on record: Mus musculus; assay: Antagonist activity at VSSC in mouse Neuro2a cells assessed as inhibition of peak current at holding potential of -100mV at 100 nM by patch-clamp method; type: cell-based
[7] = biological target: T1, Sodium channel protein type 2 subunit alpha; assay: Ratio of IC50 for Nav1.2 (unknown origin) by cell based assay to IC50 for human Nav1.2 expressed in HEK293T cells assessed as inhibition of VTD-induced tail current
Target sequence in this assay (Q99250 whole entry, looked up): as the sequence (Q99250 whole entry) above

[8] = biological target: Sodium channel protein type 9 subunit alpha (Homo sapiens) (UniProt Q15858); assay: Antagonist activity at human Nav1.7 expressed in HEK293T cells assessed as inhibition of VTD-induced peak current at 1 uM by whole cell patch clamp method relative to control; type: cell-based; settings: HEK-293T
[9] = biological target: Sodium channel protein type 8 subunit alpha (Homo sapiens) (UniProt Q9UQD0); assay: Antagonist activity at human Nav1.6 expressed in HEK293T cells assessed as inhibition of VTD-induced sustained current at 1 uM by whole cell patch clamp method relative to control; type: cell-based; settings: HEK-293T
[10] = biological target: Sodium channel protein type 8 subunit alpha (Homo sapiens) (UniProt Q9UQD0); assay: Antagonist activity at human Nav1.6 expressed in HEK293T cells assessed as inhibition of VTD-induced tail current at 1 uM at holding potential of -100mV by whole cell patch clamp method relative to control; type: cell-based; settings: HEK-293T
[11] = biological target: Sodium channel protein type 9 subunit alpha (Homo sapiens) (UniProt Q15858); assay: Antagonist activity at human Nav1.7 expressed in HEK293T cells assessed as inhibition of VTD-induced tail current at 1 uM at holding potential of -100mV by whole cell patch clamp method relative to control; type: cell-based; settings: HEK-293T
[12] = biological target: Sodium channel protein type 8 subunit alpha (Homo sapiens) (UniProt Q9UQD0); assay: Antagonist activity at human Nav1.6 expressed in HEK293T cells assessed as inhibition of VTD-induced peak current at 1 uM by whole cell patch clamp method relative to control; type: cell-based; settings: HEK-293T
[13] = biological target: Sodium channel protein type 9 subunit alpha (Homo sapiens) (UniProt Q15858); assay: Antagonist activity at human Nav1.7 expressed in HEK293T cells assessed as inhibition of VTD-induced sustained current at 1 uM by whole cell patch clamp method relative to control; type: cell-based; settings: HEK-293T
[14] = biological target: Sodium channel protein type 8 subunit alpha (Homo sapiens) (UniProt Q9UQD0); settings: HEK-293T, 30 nM
Description: Antagonist activity at human Nav1.6 expressed in HEK293T cells assessed as inhibition of VTD-induced sustained current at 30 nM by whole cell patch clamp method relative to control

[15] = biological target: Sodium channel protein type 8 subunit alpha (Homo sapiens) (UniProt Q9UQD0); settings: HEK-293T, 30 nM; remark: listed apart in the source
Description: Antagonist activity at human Nav1.6 expressed in HEK293T cells assessed as inhibition of VTD-induced peak current at 30 nM by whole cell patch clamp method relative to control

[16] = biological target: Sodium channel protein type 9 subunit alpha (Homo sapiens) (UniProt Q15858); settings: HEK-293T, 30 nM
Description: Antagonist activity at human Nav1.7 expressed in HEK293T cells assessed as inhibition of VTD-induced sustained current at 30 nM by whole cell patch clamp method relative to control

[17] = biological target: Sodium channel protein type 9 subunit alpha (Homo sapiens) (UniProt Q15858); settings: HEK-293T, 30 nM; remark: listed apart in the source
Description: Antagonist activity at human Nav1.7 expressed in HEK293T cells assessed as inhibition of VTD-induced peak current at 30 nM by whole cell patch clamp method relative to control

[18] = biological target: Sodium channel protein type 9 subunit alpha (Homo sapiens) (UniProt Q15858); settings: HEK-293T, 30 nM; remark: listed apart in the source
Description: Antagonist activity at human Nav1.7 expressed in HEK293T cells assessed as inhibition of VTD-induced tail current at 30 nM at holding potential of -100mV by whole cell patch clamp method relative to control

[19] = biological target: Sodium channel protein type 8 subunit alpha (Homo sapiens) (UniProt Q9UQD0); settings: HEK-293T, 30 nM; remark: listed apart in the source
Description: Antagonist activity at human Nav1.6 expressed in HEK293T cells assessed as inhibition of VTD-induced tail current at 30 nM at holding potential of -100mV by whole cell patch clamp method relative to control

Chain of Sodium channel protein type 9 subunit alpha (Homo sapiens) (Q15858 whole entry, looked up): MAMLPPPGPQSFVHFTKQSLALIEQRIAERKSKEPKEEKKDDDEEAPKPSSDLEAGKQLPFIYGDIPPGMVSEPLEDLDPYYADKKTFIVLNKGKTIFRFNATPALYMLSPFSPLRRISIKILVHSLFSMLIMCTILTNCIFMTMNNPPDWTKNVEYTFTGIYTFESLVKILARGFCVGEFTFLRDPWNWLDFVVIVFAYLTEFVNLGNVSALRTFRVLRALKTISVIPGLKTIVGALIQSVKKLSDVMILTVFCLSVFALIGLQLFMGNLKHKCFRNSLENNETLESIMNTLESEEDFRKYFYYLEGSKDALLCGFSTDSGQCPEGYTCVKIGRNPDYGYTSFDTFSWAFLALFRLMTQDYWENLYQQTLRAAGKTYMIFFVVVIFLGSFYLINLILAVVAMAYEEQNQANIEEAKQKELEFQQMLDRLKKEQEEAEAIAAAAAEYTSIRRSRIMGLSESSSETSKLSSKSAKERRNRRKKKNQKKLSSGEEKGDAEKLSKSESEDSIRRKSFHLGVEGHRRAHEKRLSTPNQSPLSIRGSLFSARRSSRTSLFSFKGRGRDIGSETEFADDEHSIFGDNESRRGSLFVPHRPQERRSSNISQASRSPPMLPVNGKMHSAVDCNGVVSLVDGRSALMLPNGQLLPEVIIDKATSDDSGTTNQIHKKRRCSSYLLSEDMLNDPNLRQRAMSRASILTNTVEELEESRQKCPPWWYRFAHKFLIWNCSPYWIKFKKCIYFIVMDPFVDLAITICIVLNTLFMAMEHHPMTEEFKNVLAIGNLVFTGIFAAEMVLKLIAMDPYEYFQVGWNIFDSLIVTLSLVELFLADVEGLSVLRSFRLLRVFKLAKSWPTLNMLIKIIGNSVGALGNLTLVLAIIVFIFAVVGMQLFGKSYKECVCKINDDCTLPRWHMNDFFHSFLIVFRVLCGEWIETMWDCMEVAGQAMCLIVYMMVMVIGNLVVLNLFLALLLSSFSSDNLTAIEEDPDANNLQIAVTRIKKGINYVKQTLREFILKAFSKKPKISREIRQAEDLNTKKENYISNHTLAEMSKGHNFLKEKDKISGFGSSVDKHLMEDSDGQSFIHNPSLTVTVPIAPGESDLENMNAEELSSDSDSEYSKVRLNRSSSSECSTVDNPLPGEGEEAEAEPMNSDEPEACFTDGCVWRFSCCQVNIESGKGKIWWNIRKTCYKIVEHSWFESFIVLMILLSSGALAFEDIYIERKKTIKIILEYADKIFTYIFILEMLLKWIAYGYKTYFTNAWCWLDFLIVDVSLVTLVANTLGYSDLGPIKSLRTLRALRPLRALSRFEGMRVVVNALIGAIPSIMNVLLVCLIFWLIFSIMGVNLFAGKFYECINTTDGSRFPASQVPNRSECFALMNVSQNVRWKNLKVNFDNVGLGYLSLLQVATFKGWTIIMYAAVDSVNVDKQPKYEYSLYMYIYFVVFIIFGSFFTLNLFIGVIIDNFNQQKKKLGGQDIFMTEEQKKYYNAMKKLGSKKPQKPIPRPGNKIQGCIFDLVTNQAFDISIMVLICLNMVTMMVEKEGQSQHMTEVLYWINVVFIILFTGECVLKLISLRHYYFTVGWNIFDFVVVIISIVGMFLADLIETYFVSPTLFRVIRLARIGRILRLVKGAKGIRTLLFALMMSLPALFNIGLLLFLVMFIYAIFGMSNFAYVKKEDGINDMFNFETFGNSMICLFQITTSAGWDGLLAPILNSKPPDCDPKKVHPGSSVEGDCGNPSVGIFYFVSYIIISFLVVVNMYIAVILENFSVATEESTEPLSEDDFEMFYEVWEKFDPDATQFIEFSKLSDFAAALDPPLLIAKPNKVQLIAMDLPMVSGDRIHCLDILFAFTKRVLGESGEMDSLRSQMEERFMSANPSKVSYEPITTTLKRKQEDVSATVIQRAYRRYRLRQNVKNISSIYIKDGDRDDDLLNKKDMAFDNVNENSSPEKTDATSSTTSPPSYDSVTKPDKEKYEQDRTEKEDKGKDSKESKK

SMILES: CCCCCCCCCC[C@@H]1C[C@]2(CCCO2)NC(=N)N1
- EC50 [1]: 12 nM
- Ratio IC50 [2]: 43
- IC50 [3]: 0.45 nM
- inhibition [3]: Dose-dependent effect
- IC50 [4]: 0.28 nM
- inhibition [4]: Dose-dependent effect

SMILES: CCCCCCCCCC[C@@H]1NC(=N)N[C@]2(CCCO2)[C@@H]1C(=O)O
- inhibition [5]: Active
- EC50 [1]: 79 nM
- inhibition [6]: inactive
- IC50 [3]: 7.5 nM
- inhibition [3]: Dose-dependent effect
- IC50 [4]: 35 nM
- inhibition [4]: Dose-dependent effect

SMILES: CCCCCCCCCC[C@H]1C[C@@]2(CCCO2)NC(=N)N1
- inhibition [5]: Active
- EC50 [1]: 120 nM
- Ratio IC50 [7]: 60
- IC50 [3]: 2.1 nM
- inhibition [3]: Dose-dependent effect
- IC50 [4]: 2 nM
- inhibition [4]: Dose-dependent effect

SMILES: CCCCCCCCCCC1NC(=N)NC2(CCCO2)C1C(=O)O (racemic)
- inhibition [8]: Active
- inhibition [9]: Active
- inhibition [10]: Active
- inhibition [11]: Active
- inhibition [12]: Active
- inhibition [13]: Active

SMILES: CCCCCCCCCC[C@H]1NC(=N)N[C@@]2(CCCO2)[C@H]1C(=O)O
- inhibition [5]: Active
- EC50 [1]: 5.3 nM
- inhibition [6]: inactive
- IC50 [3]: 26 nM
- inhibition [3]: Dose-dependent effect
- IC50 [4]: 170 nM
- inhibition [4]: Dose-dependent effect

SMILES: NC1=N[C@H](O)[C@H]2[C@H]3O[C@]4(O)O[C@@H]([C@@H](O)[C@@]2(N1)[C@@H]4O)[C@]3(O)CO
- inhibition [14]: Active
- inhibition [15]: Active
- inhibition [16]: Active
- inhibition [17]: Active
- inhibition [18]: Active
- inhibition [6]: Active
- inhibition [19]: Active
